Results: patent US20060165785A1, “Method of chemically stabilizing pharmaceutical formulations with cholesterol” (priority 2005, published 2006)

Assay: Chemical stability of composite particles in lactose carrier blend stored at 60° C. and 75% relative humidity for seven days
Type: physicochemical
Method: A 20 gram blend of 5% cholesterol coated salmeterol particles was prepared with a concetration of 0.8% w/w salmeterol base in alpha lactose monohydrate. Approximately 10 grams of alpha lactose monohydrate with target particle size of 65-85μm (Borcula, The Netherlands) was weighed into the bottom of a 120 mL amber glass jar. 0.247g of 5% cholesterol coated salmeterol HNA was added on top of the lactose and 9.77 g of lactose was added on top of the mixture. The mixture was blended using a Turbula T2F blender at 96 RPM for 5 minutes. The jar was removed from the blender and excess blend was tapped from the top of the jar. One additional blending cycle was performed for 5 minutes at 96 RPM to complete the process.
Samples of particles prepared in accordance with Example 2 above were stored in controlled atmospheric conditions of 60° C. and 75% relative humidity for seven days. The percentage of active ingredient was taken at day 0 and day 7. […] When cholesterol was included, the degradation was reduced to less than 2%.
It has been observed that micronized SX degrades at 60 ° C. and 75% relative humidity (RH) conditions when in a neat blend with lactose.

SMILES | % Impurities of Composite Particles in 0.4% GW597901M Base/Lactose Blend, 7 Days at 60° C. and 75% RH (0.4% GW597901M base/lactose blend, 7 days at 60° C. and 75% RH) | % Impurities of Composite Particles in 0.4% GW597901M Base/Lactose Blend, Initial (0.4% GW597901M base/lactose blend, initial) | % Impurities of Composite Particles in 0.8% Salmeterol Base/Lactose Blend, 7 Days at 60° C. and 75% RH (0.8% salmeterol base/lactose blend, 7 days at 60° C. and 75% RH) | % Impurities of Composite Particles in 0.8% Salmeterol Base/Lactose Blend, 7 Days at 60° C. and 75% RH (0.8% salmeterol base/lactose blend, 7 days at 60° C. and 75% RH, listed as MIC SX from alternate study) | % Impurities of Composite Particles in 0.8% Salmeterol Base/Lactose Blend, Initial (0.8% salmeterol base/lactose blend, initial (day 0)) | drop in the amount of SX present in the formulation (degradation) at day 7 (formulation with carrier, 60° C. and 75% relative humidity, day 7 vs day 0)
NS(=O)(=O)c1cccc(CCCCOCCCCCCNC[C@H](O)c2ccc(O)c(CO)c2)c1 [Micronized GW597901M, 3-(4-{[6-({(2R)-2-hydroxy-2-[4-hydroxy-3-(hydroxymethyl)phenyl]ethyl}amino)hexyl]oxy}-butyl)benzene-sulfonamide] | 10.0% | 3.9% |  |  |  | 
OCc1cc(C(O)CNCCCCCCOCCCCc2ccccc2)ccc1O (stereo not drawn) [Micronized SX, salmeterol xinafoate] |  |  | 7.4% | 8.0% | 0.5% | 7%
